Measurements published in US20080312435A1, “Imine Compound” (TAISHO PHARMACEUTICAL CO., LTD., priority 2004, published 2008).

Tests used:
[1] = test system: Jcl: ICR-series male mice; assay: Writhing test with acetic acid in mouse; assay type: in vivo; settings: orally administered 30 mg/kg, acetic acid i.p. one hour after administration
Method: Writhing Test with Acetic Acid in Mouse
This test was performed in accordance with the method of Futaki N et al. (Gen Pharmacol. 24(1):105-110 (1993). A test compound suspended in a 5% gum Arabic solution was orally administered to Jcl: ICR-series male mice (5 weeks old). One hour after the administration of the test compound, a 0.9% aqueous acetic acid solution was intraperitoneally administered. Five minutes after the administration, the number of abdomen stretch movements (pain-related behavior) were counted for 10 minutes. Only the 5% gum Arabic solution was orally administered to the control group. A pain-related behavior inhibition rate (%) was obtained based on the following equation.

human CB2 receptor [2] = biological target: T1, human CB2 receptor (Homo sapiens, UniProt P34972); assay: Human CB2 receptor binding inhibition test ([3H]CP-55,940, CHO membrane fractions); settings: [3H]CP-55,940, membrane fractions of CHO cells stably expressing human CB2 receptor, 25° C., 2 hours; read-out: CB2 IC50 (Inhibition of binding to human CB2 receptor)
T1 construct: expressed in transfected cells
In short: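 Membranes from CHO-DHFR(−) cells stably expressing human CB2 used for [3H]CP-55,940 binding; filter-bound radioactivity counted by scintillation after washes with 0.1% BSA buffer. Nonspecific binding defined with 2.0 μM CP-55,940; IC50 for inhibition of specific binding.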

Balb/c male mice = assay: Test for edema on ear in mouse (PMA-induced); assay type: in vivo; settings: 1 mg per murine ear, PMA 0.8 μg, measured five hours later
Method: Test for Edema on Ear in Mouse
Using Balb/c male mice (5 weeks old), a test compound dissolved in acetone was applied in an amount of 20 μL to the inside the ear. Ten minutes after the application of the test compound, an acetone solution (20 μL) containing 0.8 μg of PMA (phorbol 12-myristate 13-acetate) was applied. Five hours later, the thickness (hyperplasia) of the ear was measured by a dial sickness gauge. Acetone alone was applied to the control group. The inhibition rate (%) of edema on the ear was calculated based on the following equation.

human CB2 receptor [3] = biological target: T1, human CB2 receptor; assay: Test for GTPγS binding via human CB2 receptor; assay type: biochemical; settings: human CB2 receptor CHO membrane fractions; read-out: EC50 value (effective concentration exhibiting 50% activity), GTPγS binding
Method: Test for GTPγS Binding Via Human CB2 Receptor
The CHO cells capable of stably expressing the human CB2 receptor were prepared in the same manner as in Experimental Example 1.

human CB1 receptor [4] = biological target: T2, human CB1 receptor (Homo sapiens, UniProt P21554); assay: Human CB1 receptor binding inhibition test; settings: CHO-DHFR(−) cells stably expressing human CB1 receptor, same manner as Experimental Example 1
T2 construct: expressed in transfected cells
Method: Human CB1 Receptor Binding Inhibition Test
The CHO-DHFR(−) cells capable of stably expressing a CB1 receptor were prepared in the same manner as in Experimental Example 1. The binding test to the human CB1 receptor was performed to obtain 50% inhibitory concentration (IC50 value) of a test compound.

human CB1 receptor [5] = biological target: T2, human CB1 receptor; assay: Test for GTPγS binding via human CB1 receptor; assay type: biochemical; settings: human CB1 receptor CHO membrane fractions; maximum activity of each compound regarded as 100%; read-out: EC50 value (effective concentration exhibiting 50% activity), [35S]GTPγS binding
Method: Test for GTPγS Binding Via Human CB1 Receptor
CHO cells capable of stably expressing the human CB1 receptor were prepared in the same manner as in Experimental Example 2. The membrane fractions thereof were incubated together with a test compound in an assay buffer [50 mM Tris-HCl (pH 7.4), 2.5 mM EDTA, 5 mM MgCl2, 3 μM GDP (manufactured by SIGMA), 30 μg/ml Saponin (manufactured by SIGMA)] containing 0.2% bovine serum albumin at 30° C. for 30 minutes. Thereafter, 0.1 nM [^35S]GTPγS (manufactured by Perkin Elmer) was added to the buffer, incubation was performed at 30° C. for 30 minutes. The resultant solution was filtrated by a glass filter GF/C and washed. Thereafter, radioactivity on the glass filter was measured by a liquid scintillation counter. The nonspecific binding was measured […].

SD:IGS-series male rats = assay: Neuropathic pain test in rat (partial sciatic nerve clipping, von Frey filament); assay type: in vivo; settings: oral administration 3, 10 and 30 mg/kg, one hour after administration, FIG. 1
Method: Neuropathic Pain Test in Rat
Using SD:IGS-series male rats (5 weeks old), neuropathic pain model were prepared by partially clipping the sciatic nerve of the femoral region in accordance with the method of Seltzer et al. (SeltzerZ; Pain. 43(2):205-218 (1990)). When the plantar surface of the paw on the affected side was stimulated by touching with a von Frey filament(s) (nylon fiber for use in a touch test: North Coast Medical, Inc.), the pain threshold (load (g) applied to the filament when an animal responds to touch stimulation) was measured. The test compound was suspended in a 5% gum Arabic solution and administered in a dose of 0 mg/kg, 3 mg/kg, 10 mg/kg and 30 mg/kg. One hour after the administration, pain threshold (g) was measured.

T2 sequence (P21554 whole entry): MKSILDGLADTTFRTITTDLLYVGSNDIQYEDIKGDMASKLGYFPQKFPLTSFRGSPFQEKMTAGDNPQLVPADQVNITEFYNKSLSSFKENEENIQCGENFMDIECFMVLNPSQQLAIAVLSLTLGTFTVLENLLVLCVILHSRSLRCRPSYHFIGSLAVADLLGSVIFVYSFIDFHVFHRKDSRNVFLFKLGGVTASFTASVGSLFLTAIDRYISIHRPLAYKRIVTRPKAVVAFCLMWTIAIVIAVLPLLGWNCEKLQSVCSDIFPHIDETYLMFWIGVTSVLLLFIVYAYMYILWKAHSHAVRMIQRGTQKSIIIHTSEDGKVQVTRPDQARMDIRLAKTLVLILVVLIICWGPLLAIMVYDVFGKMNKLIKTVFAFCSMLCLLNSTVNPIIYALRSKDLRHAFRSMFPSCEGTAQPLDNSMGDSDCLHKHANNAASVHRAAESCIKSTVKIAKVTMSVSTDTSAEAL
T1 sequence (P34972 whole entry): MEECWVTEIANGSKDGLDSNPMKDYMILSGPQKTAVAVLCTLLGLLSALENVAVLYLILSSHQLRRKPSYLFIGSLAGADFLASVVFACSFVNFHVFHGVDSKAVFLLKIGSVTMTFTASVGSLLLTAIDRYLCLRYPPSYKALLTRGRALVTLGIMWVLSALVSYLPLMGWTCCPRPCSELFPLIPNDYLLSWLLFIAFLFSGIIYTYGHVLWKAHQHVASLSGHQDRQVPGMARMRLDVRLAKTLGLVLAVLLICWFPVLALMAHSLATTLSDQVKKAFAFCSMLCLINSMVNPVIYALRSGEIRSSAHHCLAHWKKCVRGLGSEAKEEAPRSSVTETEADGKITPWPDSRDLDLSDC

Row | SMILES | melting point | pain-related behavior inhibition rate [1] | IC50 (human CB2 receptor [2]) | inhibition rate of edema on the ear (Balb/c male mice) | EC50 (human CB2 receptor [3]) | IC50 (human CB1 receptor [4]) | EC50 (human CB1 receptor [5]) | pain threshold (SD:IGS-series male rats)
1 | COc1ccc(C(F)(F)F)cc1C(=O)/N=c1\sc(C(C)(C)C)c(C)n1CC1CC1 [compound 267] | 175 to 177 °C | 59.9% | 1.1 nM | 84% | 0.4 nM |  |  | 
2 | CC(C)(C)c1nn(CC2CC2)/c(=N/C(=O)c2nccc3ccccc23)s1 [compound 510] | 89 to 90 °C | 19.6% | 13.2 nM |  |  |  |  | 
3 | Cn1c(C(C)(C)C)c/c(=N\C(=O)c2cccc(C(F)(F)F)c2F)n1CC1CC1 [compound 474, N-(5-t-butyl-2-cyclopropylmethyl-1,2-dihydro-1-methylpyrazol-3-ylidene)-2-fluoro-3-(trifluoromethyl)benzamide] |  | 61.9% | 4.9 nM | 37% | 2.3 nM |  |  | 
4 | COc1ccc(C(F)(F)F)cc1C(=O)/N=c1\cc(C(C)(C)C)sn1CC1CC1 [compound 59] | 95 to 97 °C | 44.8% | 7.2 nM |  |  |  |  | 
5 | Cc1cccc(C(=O)/N=c2\sc(C(C)(C)C)c(C)n2CC2CC2)c1I [compound 249] | 149 to 151 °C |  | 0.4 nM |  |  | 2 nM | 19 nM | 
6 | Cc1c(C(C)(C)C)s/c(=N\S(=O)(=O)c2ccccc2C(F)(F)F)n1CC1CC1 [compound 411] |  | 49.0% | 8.7 nM |  |  |  |  | 
7 | Cc1c(C(C)(C)C)s/c(=N\C(=O)c2cccc(C(F)(F)F)c2)n1CC1CC1 [compound 184] |  |  | 12 nM | 65% | 9.8 nM |  |  | increased pain threshold in a dose depending manner
8 | O=C(/N=c1\ccccn1CC1CC1)c1cccc(C(F)(F)F)c1F [compound 9] | 58.5 to 59 °C |  | 11.3 nM |  | 23.7 nM |  |  | 
9 | Cc1cccc(C(=O)/N=c2\sc(C(C)(C)C)c(C)n2CC2CC2)c1Br [compound 247] | 142 to 144 °C | 93.0% | 0.3 nM |  |  | 3 nM | 33 nM | 
10 | Cc1cccc(C(=O)/N=c2\sc(C(C)(C)C)c(C)n2CC2CC2)c1C [compound 215] | 97 to 98 °C |  | 1.1 nM |  |  | 61 nM |  | 
11 | Cc1c(C(C)(C)C)s/c(=N\C(=O)c2c(F)ccc(C(F)(F)F)c2F)n1CC1CC1 [compound 288] | 109 to 111 °C |  | 0.2 nM |  |  | 49 nM |  | 
12 | COCCn1c(C)c(C)s/c1=N\C(=O)c1cccc(C(F)(F)F)c1F [compound 104] | 182 to 183 °C |  | 1.7 nM |  |  | 327 nM |  | 
13 | Cc1c(C(C)(C)C)s/c(=N\C(=O)c2ccnc3ccccc23)n1CC1CC1 [compound 323] | 124 to 126 °C |  | 6.2 nM |  |  | 362 nM |  | 
14 | CCOCCn1c(C)c(C)s/c1=N\C(=O)c1cccc(C(F)(F)F)c1F [compound 107] | 147 to 148 °C |  | 0.5 nM |  |  | 18 nM |  | 
15 | Cc1c(C(C)(C)C)s/c(=N\C(=O)c2c(F)cccc2F)n1CC1CC1 [compound 223] | 123 to 124 °C |  | 2 nM |  |  | 168 nM |  | 
16 | CC(C)(C)c1c/c(=N\C(=O)c2cccc(C(F)(F)F)c2F)n(CC2CC2)s1 [compound 56] | 85 to 87 °C |  | 0.8 nM |  |  | 294 nM |  | 
17 | Cc1c(F)cccc1C(=O)/N=c1\sc(C(C)(C)C)c(C)n1CC1CC1 [compound 240] | 94 to 96 °C |  | 3.4 nM |  |  | 168 nM |  | 
18 | COc1cc(Cl)ccc1C(=O)/N=c1\sc(C(C)(C)C)c(C)n1CC1CC1 [compound 264] | 163 to 165 °C |  | 1 nM |  |  | 181 nM |  | 
19 | Cc1c(C(C)(C)C)s/c(=N\C(=O)c2c(Cl)cncc2Cl)n1CC1CC1 [compound 308] | 260 to 261 °C |  | 3.6 nM |  |  | 336 nM |  | 
